Experimental data published in publication PMC11062899, “De novo development of small cyclic peptides that are orally bioavailable” (Nature Chemical Biology, 2023).
Values joined by “and” are separate entries in the source; they are usually repeats but may differ in a detail not shown here. Equal entries are not always repeated. Each block holds one compound with its values, some of them ahead of it.

Legend:
[1] = biological target: T1, porcine pepsin (Sus scrofa, UniProt P00791); assay: Peptide stability in simulated gastric fluid (SGF); type: in vitro ADME; conditions: for SGF stability, Residual peptide Average / SGF stability, Residual peptide: after 8 h vs 0 h (TIC); for SGF stability, Residual peptide Average: average of R1-R3; for SGF stability, Residual peptide: single replicates R1-R3; for remaining at 8 h: simulated gi fluid, 37 °C, pH 1.2, read-out: Proteolytic stability: SGF (8 h) % remaining
T1 construct: 0.32 g of porcine pepsin (Sigma-Aldrich, P7125) was dissolved under gentle agitation; purchased Sigma-Aldrich P7125
T1 sequence (P00791 60-385): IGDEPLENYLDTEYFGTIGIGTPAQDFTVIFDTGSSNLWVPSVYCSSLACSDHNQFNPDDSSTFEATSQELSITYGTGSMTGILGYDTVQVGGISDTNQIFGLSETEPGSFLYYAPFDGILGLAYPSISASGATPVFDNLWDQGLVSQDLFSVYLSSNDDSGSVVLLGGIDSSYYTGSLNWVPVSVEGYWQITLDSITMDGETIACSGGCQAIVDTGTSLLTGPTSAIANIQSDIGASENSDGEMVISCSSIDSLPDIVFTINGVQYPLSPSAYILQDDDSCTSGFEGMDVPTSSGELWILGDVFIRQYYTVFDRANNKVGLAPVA
Outline: (§1)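 Peptide from a 1 mM DMSO stock was added to fluid pre-warmed at 37 °C. SGF was pH 1.2 NaCl with porcine pepsin (0.32 g per 100 ml), and SIF was pH 6.8 potassium phosphate with porcine pancreatin (1 g per 100 ml). Supernatant peptide was quantified by LC–MS, with residual expressed as T1/T0.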

[2] = Metabolic stability in rat liver microsomes (RLMs); conditions: rat, microsomes
[3] = Passive artificial membrane permeability (PAMPA); conditions: for PAMPA permeability: % permeability: 50 μM, 12–18 h, acceptor concentration relative to equilibrium; for Papp at 50 μM / Permeability% Average / Permeability% R1 / Permeability% R3: PAMPA; for Papp at 50 μM: pH 7.4; for Permeability% Average: average of R1-R3; for Permeability% R1: replicate R1; for Permeability% R1 / Permeability% R3: TIC of top well sample relative to sample at theoretical equilibrium; for Permeability% R3: replicate R3
[4] = Peptide stability in simulated intestinal fluid (SIF); type: in vitro ADME, porcine; conditions: simulated gi fluid; 8 h, 37 °C, pH 6.8; read-out: Proteolytic stability: SIF (8 h) % remaining
Outline: as §1

[5] = test system: porcine pancreatin; assay: as above; type: in vitro ADME; conditions: after 8 h vs 0 h (TIC); for SIF stability, Residual peptide Average: average of R1-R3
Outline: as §1

[6] = biological target: T2, rat α-thrombin (Rattus norvegicus, UniProt P18292); assay: Protease inhibition, Ki for rat α-thrombin (fluorogenic substrate Z-Gly-Gly-Arg-AMC); type: biochemical; conditions: replicates R1-R3
T2 construct: rat α-thrombin (Molecular Innovations) were used at final concentrations of 2 nM and 3 nM; purchased Molecular Innovations
Outline: (§2)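 Ki values come from Cheng–Prusoff correction of IC50, itself fitted by four-parameter logistic regression of activity versus a no-peptide control. Assays used 2 nM human or 3 nM rat thrombin, 50 μM Z-Gly-Gly-Arg-AMC, 30 min kinetic fluorescence at 25 °C.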

[7] = biological target: human α-thrombin (Homo sapiens, UniProt P00734); assay: Protease inhibition, Ki for human α-thrombin (fluorogenic substrate Z-Gly-Gly-Arg-AMC); type: biochemical; conditions: replicates R1-R3
Outline: as §2

[8] = CL (ul/min/mg protein) R1, RLM CL, replicate R1
[9] = CL (ul/min/mg protein) R2, RLM CL, replicate R2
[10] = CL (ul/min/mg protein) R3, RLM CL, replicate R3
[11] = Half Life (min) R1, RLM metabolic stability, replicate R1, 0-60 min
[12] = Half Life (min) R2, RLM metabolic stability, replicate R2, 0-60 min
[13] = Half Life (min) R3, RLM metabolic stability, replicate R3, 0-60 min
[14] = Metabolic stability: RLM CL (ul/min/mg), RLMs, mean and SD, three measurements
[15] = peptide 1.33E+02 uM, slope of proteolytic substrate cleavage over time

- SGF stability, Residual peptide Average [1]: 96.69
- SGF stability, Residual peptide [1]: 100.68 and 91.38 and 98.01
- remaining at 8 h [1]: 97 ± 5%
- microsomal CLint [2, 8]: 29.5 µL/min/mg
- microsomal CLint [2, 9]: 24 µL/min/mg
- microsomal CLint [2, 10]: 26.2 µL/min/mg
- half-life [2, 11]: 46.9 min
- half-life [2, 12]: 57.7 min
- half-life [2, 13]: 53 min
- microsomal CLint [2, 14]: 27 ± 2 µL/min/mg
- PAMPA permeability: % permeability [3]: 0.99 ± 0.28%
- Papp at 50 μM [3]: 0.0646 ×10⁻⁶ cm/s
- Permeability% Average [3]: 1.0%
- Permeability% R1 [3]: 1.25%
- Permeability% R3 [3]: 1.03%
- remaining at 8 h [4]: 93 ± 13%
- SIF stability, Residual peptide Average [5]: 92.33
- Rat alpha thrombin inhibition, slope normalized to DMSO [6, 15]: 12.2 and 19.4 and 24.3
- Rat alpha thrombin inhibition, slope normalized to DMSO ([6]; peptide 1.67E+01 uM): 41.8 and 45.6 and 42.9
- Rat alpha thrombin inhibition, slope normalized to DMSO ([6]; peptide 2.08E+00 uM): 71.5 and 79.0 and 60.4
- Rat alpha thrombin inhibition, slope normalized to DMSO ([6]; peptide 3.33E+01 uM): 25.4 and 28.0 and 27.8
- Rat alpha thrombin inhibition, slope normalized to DMSO ([6]; peptide 4.17E+00 uM): 66.5 and 70.9 and 68.3
- Rat alpha thrombin inhibition, slope normalized to DMSO ([6]; peptide 6.67E+01 uM): 16.3 and 21.9 and 8.4
- Rat alpha thrombin inhibition, slope normalized to DMSO ([6]; peptide 8.33E+00 uM): 56.5 and 61.2 and 59.0
- Human alpha thrombin inhibition, slope normalized to DMSO ([7]; peptide 1.02E-03 uM): 98.9 and 95.1 and 89.8
- Human alpha thrombin inhibition, slope normalized to DMSO ([7]; peptide 1.04E+00 uM): 90.6 and 90.5 and 80.1
- Human alpha thrombin inhibition, slope normalized to DMSO ([7]; peptide 1.27E-04 uM): 100.0 and 98.9 and 93.2
- Human alpha thrombin inhibition, slope normalized to DMSO ([7]; peptide 1.30E-01 uM): 69.5 and 98.5 and 88.7
- Human alpha thrombin inhibition, slope normalized to DMSO [7, 15]: 42.6 and 48.7 and 48.9
- Human alpha thrombin inhibition, slope normalized to DMSO ([7]; peptide 1.63E-02 uM): 88.4 and 95.2 and 91.8
- Human alpha thrombin inhibition, slope normalized to DMSO ([7]; peptide 1.67E+01 uM): 73.5 and 78.5 and 58.5
- Human alpha thrombin inhibition, slope normalized to DMSO ([7]; peptide 2.03E-03 uM): 99.2 and 96.7 and 91.4
- Human alpha thrombin inhibition, slope normalized to DMSO ([7]; peptide 2.08E+00 uM): 75.3 and 92.4 and 77.6
- Human alpha thrombin inhibition, slope normalized to DMSO ([7]; peptide 2.54E-04 uM): 99.2 and 99.7 and 92.0
- Human alpha thrombin inhibition, slope normalized to DMSO ([7]; peptide 2.60E-01 uM): 120.3 and 99.5 and 85.9
- Human alpha thrombin inhibition, slope normalized to DMSO ([7]; peptide 3.18E-05 uM): 87.6 and 101.9 and 93.6
- Human alpha thrombin inhibition, slope normalized to DMSO ([7]; peptide 3.26E-02 uM): 82.7 and 95.9 and 92.3
- Human alpha thrombin inhibition, slope normalized to DMSO ([7]; peptide 3.33E+01 uM): 52.1 and 61.8 and 43.1
- Human alpha thrombin inhibition, slope normalized to DMSO ([7]; peptide 4.07E-03 uM): 96.4 and 99.1 and 90.2
- Human alpha thrombin inhibition, slope normalized to DMSO ([7]; peptide 4.17E+00 uM): 69.9 and 89.4 and 83.9
- Human alpha thrombin inhibition, slope normalized to DMSO ([7]; peptide 5.09E-04 uM): 96.6 and 98.5 and 95.0
- Human alpha thrombin inhibition, slope normalized to DMSO ([7]; peptide 5.21E-01 uM): 80.4 and 93.9 and 89.5
- Human alpha thrombin inhibition, slope normalized to DMSO ([7]; peptide 6.36E-05 uM): 91.9 and 97.1 and 90.0
- Human alpha thrombin inhibition, slope normalized to DMSO ([7]; peptide 6.51E-02 uM): 80.1 and 98.2 and 90.6
- Human alpha thrombin inhibition, slope normalized to DMSO ([7]; peptide 6.67E+01 uM): 54.5 and 43.3 and 24.5
- Human alpha thrombin inhibition, slope normalized to DMSO ([7]; peptide 8.14E-03 uM): 89.1 and 102.0 and 83.1
- Human alpha thrombin inhibition, slope normalized to DMSO ([7]; peptide 8.33E+00 uM): 94.4 and 79.6 and 74.6
Structure (SMILES): NC(=O)NCCC[C@@H]1NC(=O)[C@@H](NC(=O)c2ccc(Cl)s2)CNC(=O)CCSCc2cccc(n2)CSCCNC1=O [compound 20]

- SGF stability, Residual peptide Average [1]: 96.77
- SGF stability, Residual peptide [1]: 95.02 and 96.82 and 98.46
- remaining at 8 h [1]: 97 ± 2%
- microsomal CLint [2, 8]: 102 µL/min/mg
- microsomal CLint [2, 9]: 60.2 µL/min/mg
- microsomal CLint [2, 10]: 85 µL/min/mg
- half-life [2, 11]: 13.6 min
- half-life [2, 12]: 23 min
- half-life [2, 13]: 16.3 min
- half-life ([2]; Metabolic stability: Half life T1/2 (min), RLMs, mean and SD, three measurements): 17.6 ± 4 min
- microsomal CLint [2, 14]: 82 ± 17 µL/min/mg
- PAMPA permeability: % permeability [3]: 17 ± 5%
- Papp at 50 μM [3]: 1.2 ×10⁻⁶ cm/s
- Permeability% Average [3]: 17.0%
- Permeability% R1 [3]: 13.02%
- Permeability% R3 [3]: 21.96%
- remaining at 8 h [4]: 73 ± 14%
- SIF stability, Residual peptide Average [5]: 72.44
- SIF stability, Residual peptide ([5]; single replicates R1-R3): 71.05 and 59.57 and 86.70
- Rat alpha thrombin inhibition, slope normalized to DMSO [6, 15]: 2.7 and 0.9 and 1.3
- Rat alpha thrombin inhibition, slope normalized to DMSO ([6]; peptide 1.67E+01 uM): 3.2 and 2.7 and 2.4
- Rat alpha thrombin inhibition, slope normalized to DMSO ([6]; peptide 2.08E+00 uM): 15.0 and 14.2 (2×)
- Rat alpha thrombin inhibition, slope normalized to DMSO ([6]; peptide 3.33E+01 uM): 3.0 and 2.9 and 1.6
- Rat alpha thrombin inhibition, slope normalized to DMSO ([6]; peptide 4.17E+00 uM): 8.4 and 7.9 and 15.6
- Rat alpha thrombin inhibition, slope normalized to DMSO ([6]; peptide 6.67E+01 uM): 2.7 and 2.1 and 0.8
- Rat alpha thrombin inhibition, slope normalized to DMSO ([6]; peptide 8.33E+00 uM): 4.8 and 3.7 and 3.3
- Human alpha thrombin inhibition, slope normalized to DMSO ([7]; peptide 1.02E-03 uM): 103.5 and 98.1 and 102.6
- Human alpha thrombin inhibition, slope normalized to DMSO ([7]; peptide 1.04E+00 uM): 51.0 and 46.3 and 53.8
- Human alpha thrombin inhibition, slope normalized to DMSO ([7]; peptide 1.27E-04 uM): 101.6 (2×) and 101.3
- Human alpha thrombin inhibition, slope normalized to DMSO ([7]; peptide 1.30E-01 uM): 84.8 and 85.3 and 87.8
- Human alpha thrombin inhibition, slope normalized to DMSO [7, 15]: 2.9 and 4.3 and 7.1
- Human alpha thrombin inhibition, slope normalized to DMSO ([7]; peptide 1.63E-02 uM): 94.6 and 91.7 and 97.3
- Human alpha thrombin inhibition, slope normalized to DMSO ([7]; peptide 1.67E+01 uM): 6.9 and 8.0 and 8.2
- Human alpha thrombin inhibition, slope normalized to DMSO ([7]; peptide 2.03E-03 uM): 83.6 and 95.2 and 99.1
- Human alpha thrombin inhibition, slope normalized to DMSO ([7]; peptide 2.08E+00 uM): 39.4 and 34.7 and 41.2
- Human alpha thrombin inhibition, slope normalized to DMSO ([7]; peptide 2.54E-04 uM): 100.6 and 99.2 and 101.0
- Human alpha thrombin inhibition, slope normalized to DMSO ([7]; peptide 2.60E-01 uM): 69.7 and 83.0 and 22.1
- Human alpha thrombin inhibition, slope normalized to DMSO ([7]; peptide 3.18E-05 uM): 102.2 and 99.2 and 102.0
- Human alpha thrombin inhibition, slope normalized to DMSO ([7]; peptide 3.26E-02 uM): 94.2 and 94.0 and 90.4
- Human alpha thrombin inhibition, slope normalized to DMSO ([7]; peptide 3.33E+01 uM): 5.8 (2×) and 6.2
- Human alpha thrombin inhibition, slope normalized to DMSO ([7]; peptide 4.07E-03 uM): 90.8 and 94.4 and 95.3
- Human alpha thrombin inhibition, slope normalized to DMSO ([7]; peptide 4.17E+00 uM): 22.8 and 22.7 and 20.6
- Human alpha thrombin inhibition, slope normalized to DMSO ([7]; peptide 5.09E-04 uM): 101.7 and 100.4 and 99.5
- Human alpha thrombin inhibition, slope normalized to DMSO ([7]; peptide 5.21E-01 uM): 67.4 and 67.9 and 63.6
- Human alpha thrombin inhibition, slope normalized to DMSO ([7]; peptide 6.36E-05 uM): 101.4 and 100.0 and 102.5
- Human alpha thrombin inhibition, slope normalized to DMSO ([7]; peptide 6.51E-02 uM): 98.0 and 95.1 and 90.8
- Human alpha thrombin inhibition, slope normalized to DMSO ([7]; peptide 6.67E+01 uM): 5.7 and 4.5 and 9.4
- Human alpha thrombin inhibition, slope normalized to DMSO ([7]; peptide 8.14E-03 uM): 81.7 and 101.4 and 94.1
- Human alpha thrombin inhibition, slope normalized to DMSO ([7]; peptide 8.33E+00 uM): 13.3 and 14.1 and 15.9
Structure (SMILES): O=C1CCSCc2ccc(cc2)CSCCNC(=O)[C@H](CNC(=O)c2ccc(Cl)s2)NC(=O)[C@H](Cc2ccccn2)N1 [compound 21]
